Test results: patent US20050130252A1, “Stabilized susceptibility tests of aerobic pathogens” (Wyeth Holdings Corporation, priority 2003, published 2005)

Assays:
[1] = HPLC analysis of early peak formation of tigecycline in water and MHB; assay type: physicochemical; details: stored overnight at RT
Protocol: To test the hypothesis, solutions of tigecycline were prepared in water, fresh MHB and aged MHB. The solutions were stored overnight at RT, then subjected to HPLC analysis to look for degradation of tigecycline. […] This confirmed that the formation of early peak of tigecycline was accelerated in the aged media.
In experiment 1 three experimental test samples were examined for early peak formation of tigecycline. In experiment 2 six experimental test samples were evaluated to determine the early peak of tigecycline which occurs in 24 hours. Results are as listed below:
Tigecycline at a concentration of 1 mg/mL in each of the above vehicles was prepared, assayed at time zero and 1 day @ RT.
The HPLC parameters are listed below: • HPLC column: Luna C18(2), 5 μm, 4.6×150 mm • Detection: UV @ 250 nm • Flow Rate: 1.5 mL/min • Injection volume=30 μL • Mobile Phase A: 6.8 g KH2PO4 in 950 mL water, pH to 6.2 with KOH, mixed with 50 mL acetonitrile • Mobile Phase B: 6.8 g KH2PO4 in 500 mL water, pH to 6.2 with KOH, mixed with 500 mL acetonitrile

H. influenzae ATCC 49247 = test: Broth microdilution MIC; assay type: cell-based
Protocol: The process for preparing susceptibility test medium are the following steps: • a. Preparing Mueller Hinton Broth II medium by adding 22 grams powdered media to 1.0 liter distilled water; • b. Autoclaving (121° C., 15 psi, 15 minutes) and cooling the medium; • c. Adding Oxyrase® up to about 10% final volume and keeping at 35-37° C. in an incubator for 30 minutes; • d. Adding about 50 μL to each well of a 96 well microtiter plate; • e. Weighing drug and adding broth to drug to bring up to about (standard 128 μg/ml); • f. Adding 50 μL of the drug to the first column of the titer plate; • g. Diluting by two-fold serial diluting across or down the plate. • h. Preparing a Prompt™ inoculum at 10^8 CFU/ml; • i. Diluting inoculum 1:100 in the broth at […] in 9.9 ml (1:100) is 10^6 colony forming units (CFU) forming the adjusted inoculum; • j. Adding 50 μL of the adjusted inoculum to the wells of the microtiter plate; • k. Incubating the plates at 35-37° C. for 18-22 hours; and • l. Reading, with the unaided eye, the MIC.
The in vitro activities of tigecycline and control antibiotics were determined by the broth microdilution method as recommended by the NCCLS. (National Committee for Clinical Laboratory Standards, 2003. Methods for Dilution Antimicrobial Susceptibility Tests for Bacteria That Grow Aerobically; Approved Standards: M7-A6, Sixth ed, vol. 23., National Committee for Clinical Laboratory Standards Wayne, Pa.) was used for the standard procedures. […] Oxyrase® (Oxyrase Inc, Mansfield, Ohio) was used according to the manufacturer's instructions by adding 1 ml of Oxyrase® to 50 ml of media. Media age studies were performed by preparing MHB in multiple flasks, then storing the media under various conditions. MICs were usually performed in duplicate on each day of testing. Storage under anaerobic conditions was conducted in an anaerobic chamber (MACS MG 1000, Don Whitley Scientific LTD). The pH of the media was determined by pH meter (Corning 430). A comparison of the in vitro activity of tigecycline by agar and broth dilution methodolgies with and without Oxyrase® against clinical isolates is shown in Table 1.

[2] = Table 8, Mueller Hinton Broth + Oxyrase, n = 240
[3] = Table 8, Mueller Hinton Broth, n = 210

CN(C)c1cc(NC(=O)CNC(C)(C)C)c(O)c2c1C[C@H]1C[C@H]3[C@H](N(C)C)C(O)=C(C(N)=O)C(=O)[C@@]3(O)C(O)=C1C2=O [Tigecycline, tigecycline]
Amount of the early peak (HPLC) relative to the amount in water (ratio) ([1]; tigecycline solution in aged MHB): about 35 | Amount of the early peak (HPLC) relative to the amount in water ([1]; tigecycline solution in fresh MHB): about 12 times | Number of Occurrences of MIC 0.008 ug/ml (H. influenzae ATCC 49247; [2]): 2 | Number of Occurrences of MIC 0.016 ug/ml (H. influenzae ATCC 49247; [2]): 1 | Number of Occurrences of MIC 0.06 ug/ml (H. influenzae ATCC 49247; [2]): 4 | Number of Occurrences of MIC 0.12 ug/ml (H. influenzae ATCC 49247; [2]): 156 | Number of Occurrences of MIC 0.25 ug/ml (H. influenzae ATCC 49247; [2]): 75 | Number of Occurrences of MIC 0.5 ug/ml (H. influenzae ATCC 49247; [2]): 2 | Number of Occurrences of MIC 0.12 ug/ml (H. influenzae ATCC 49247; [3]): 13 | Number of Occurrences of MIC 0.25 ug/ml (H. influenzae ATCC 49247; [3]): 156 | Number of Occurrences of MIC 0.5 ug/ml (H. influenzae ATCC 49247; [3]): 25 | Number of Occurrences of MIC 1 ug/ml (H. influenzae ATCC 49247; [3]): 10 | Number of Occurrences of MIC 2 ug/ml (H. influenzae ATCC 49247; [3]): 6
